Data published in the supplement of paper PMC11451515.

Tests used:
Experiment in all cases: AUC of viability dose-response curve (% viability x log10 dose units); higher = less sensitive
Conditions in all cases: 48 h
NOMO1 = system: NOMO1
Procedure, shortened: (§1)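 Leukemia cells adapted to each medium (500 or 1000 cells/well, 1536-well plates) were exposed to library compounds in DMSO for 48 h at 37°C at 11 threefold doses, 47 μM to 0.79 nM. Luminescence by CellTiter-Glo One was normalised per plate to DMSO and cell-free wells, then fitted with a four-parameter log-logistic curve on log10 dose. Curves above full viability were scaled and quality-control failures removed before area under the curve was integrated by trapezoidal rule.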

P12-Ichikawa = system: P12-Ichikawa
Procedure, shortened: as §1

SEM cells = system: SEM cells
Procedure, shortened: as §1

[1] = RPMI 5 mM glucose + 10% dialyzed FBS

Q: How did the “AUC of viability dose-response curve” value (NOMO1; HPLM + 10% dialyzed FBS) turn out when `CC[C@@]1(O)C(=O)OC\C2=C1\C=C\3N(CC4=C3N=C5C=CC=CC5=C4)C2=O` was run?
A: 248

Q: And the “AUC of viability dose-response curve” value (NOMO1; RPMI 5 mM glucose + 10% FBS)?
A: 241

Q: And the “AUC of viability dose-response curve” value (NOMO1; [1])?
A: 246

Q: What about the “AUC of viability dose-response curve” value (P12-Ichikawa; HPLM + 10% dialyzed FBS) of the same molecule?
A: 172

Q: And the “AUC of viability dose-response curve” value (P12-Ichikawa; RPMI 5 mM glucose + 10% FBS)?
A: 164

Q: What about the “AUC of viability dose-response curve” value (P12-Ichikawa; [1]) of the same molecule?
A: 161

Q: And the “AUC of viability dose-response curve” value (SEM cells; HPLM + 10% dialyzed FBS)?
A: 190

Q: And the “AUC of viability dose-response curve” value (SEM cells; RPMI 5 mM glucose + 10% FBS)?
A: 158

Q: And the “AUC of viability dose-response curve” value (SEM cells; [1])?
A: 165

Q: Which results are given for `COc1ncnc(N[S+](=O)([O-])c2ccc(N)cc2)c1OC`?
A: AUC of viability dose-response curve (NOMO1; HPLM + 10% dialyzed FBS): 348; AUC of viability dose-response curve (NOMO1; RPMI 5 mM glucose + 10% FBS): 394; AUC of viability dose-response curve (NOMO1; [1]): 404; AUC of viability dose-response curve (P12-Ichikawa; HPLM + 10% dialyzed FBS): 341; AUC of viability dose-response curve (P12-Ichikawa; RPMI 5 mM glucose + 10% FBS): 320; AUC of viability dose-response curve (P12-Ichikawa; [1]): 316

Q: With `CN[C@@H](C)C(=O)N[C@H]1CN(C(=O)CC(C)C)CC[C@H]2CC[C@@H](C(=O)NC(c3ccccc3)c3ccccc3)N2C1=O` as the molecule, how does the “AUC of viability dose-response curve” value (NOMO1; HPLM + 10% dialyzed FBS) read?
A: 317

Q: And the “AUC of viability dose-response curve” value (NOMO1; RPMI 5 mM glucose + 10% FBS)?
A: 336

Q: What about the “AUC of viability dose-response curve” value (NOMO1; [1]) of the same molecule?
A: 361

Q: What about the “AUC of viability dose-response curve” value (P12-Ichikawa; HPLM + 10% dialyzed FBS) of the same molecule?
A: 411

Q: And the “AUC of viability dose-response curve” value (P12-Ichikawa; RPMI 5 mM glucose + 10% FBS)?
A: 406

Q: What about the “AUC of viability dose-response curve” value (P12-Ichikawa; [1]) of the same molecule?
A: 424

Q: And the “AUC of viability dose-response curve” value (SEM cells; HPLM + 10% dialyzed FBS)?
A: 431

Q: And the “AUC of viability dose-response curve” value (SEM cells; RPMI 5 mM glucose + 10% FBS)?
A: 406

Q: And the “AUC of viability dose-response curve” value (SEM cells; [1])?
A: 423

Q: Which “AUC of viability dose-response curve” value (NOMO1; HPLM + 10% dialyzed FBS) does the source give for `CC(C)c1ccc(Cn2ccc3c4c(N)nc(NC5CC5)nc4ccc32)cc1` here?
A: 339

Q: What about the “AUC of viability dose-response curve” value (NOMO1; RPMI 5 mM glucose + 10% FBS) of the same molecule?
A: 409

Q: And the “AUC of viability dose-response curve” value (NOMO1; [1])?
A: 384

Q: What about the “AUC of viability dose-response curve” value (P12-Ichikawa; HPLM + 10% dialyzed FBS) of the same molecule?
A: 343

Q: And the “AUC of viability dose-response curve” value (P12-Ichikawa; RPMI 5 mM glucose + 10% FBS)?
A: 392

Q: And the “AUC of viability dose-response curve” value (P12-Ichikawa; [1])?
A: 368

Q: And the “AUC of viability dose-response curve” value (SEM cells; HPLM + 10% dialyzed FBS)?
A: 343

Q: What about the “AUC of viability dose-response curve” value (SEM cells; RPMI 5 mM glucose + 10% FBS) of the same molecule?
A: 383

Q: And the “AUC of viability dose-response curve” value (SEM cells; [1])?
A: 390

Q: For `CNCc1ccc(-c2[nH]c3cc(F)cc4c3c2CCNC4=O)cc1`, which “AUC of viability dose-response curve” value (NOMO1; HPLM + 10% dialyzed FBS) is on record?
A: 474

Q: What about the “AUC of viability dose-response curve” value (NOMO1; RPMI 5 mM glucose + 10% FBS) of the same molecule?
A: 466

Q: What about the “AUC of viability dose-response curve” value (NOMO1; [1]) of the same molecule?
A: 461

Q: What about the “AUC of viability dose-response curve” value (P12-Ichikawa; HPLM + 10% dialyzed FBS) of the same molecule?
A: 470

Q: And the “AUC of viability dose-response curve” value (P12-Ichikawa; RPMI 5 mM glucose + 10% FBS)?
A: 474

Q: What about the “AUC of viability dose-response curve” value (P12-Ichikawa; [1]) of the same molecule?
A: 467

Q: What about the “AUC of viability dose-response curve” value (SEM cells; HPLM + 10% dialyzed FBS) of the same molecule?
A: 439

Q: What about the “AUC of viability dose-response curve” value (SEM cells; RPMI 5 mM glucose + 10% FBS) of the same molecule?
A: 434

Q: And the “AUC of viability dose-response curve” value (SEM cells; [1])?
A: 460

Q: Which “AUC of viability dose-response curve” value (NOMO1; HPLM + 10% dialyzed FBS) does the source give for `CC1(N2CCC(n3c([C@@H]4CCCNC4)nc4ccccc43)CC2)CCCCCCC1` here?
A: 420

Q: What about the “AUC of viability dose-response curve” value (NOMO1; RPMI 5 mM glucose + 10% FBS) of the same molecule?
A: 460

Q: What about the “AUC of viability dose-response curve” value (NOMO1; [1]) of the same molecule?
A: 433

Q: What about the “AUC of viability dose-response curve” value (P12-Ichikawa; HPLM + 10% dialyzed FBS) of the same molecule?
A: 456

Q: And the “AUC of viability dose-response curve” value (P12-Ichikawa; RPMI 5 mM glucose + 10% FBS)?
A: 458

Q: What about the “AUC of viability dose-response curve” value (P12-Ichikawa; [1]) of the same molecule?
A: 456

Q: What about the “AUC of viability dose-response curve” value (SEM cells; HPLM + 10% dialyzed FBS) of the same molecule?
A: 430

Q: And the “AUC of viability dose-response curve” value (SEM cells; RPMI 5 mM glucose + 10% FBS)?
A: 467

Q: And the “AUC of viability dose-response curve” value (SEM cells; [1])?
A: 471

Q: `C[S+](=O)([O-])c1ccc(-c2cnc(N)c(C(=O)Nc3ccccc3)n2)cc1` was tested. Which “AUC of viability dose-response curve” value (NOMO1; HPLM + 10% dialyzed FBS) did it give?
A: 435

Q: And the “AUC of viability dose-response curve” value (NOMO1; RPMI 5 mM glucose + 10% FBS)?
A: 462

Q: What about the “AUC of viability dose-response curve” value (NOMO1; [1]) of the same molecule?
A: 455

Q: And the “AUC of viability dose-response curve” value (P12-Ichikawa; HPLM + 10% dialyzed FBS)?
A: 462

Q: And the “AUC of viability dose-response curve” value (P12-Ichikawa; RPMI 5 mM glucose + 10% FBS)?
A: 453

Q: And the “AUC of viability dose-response curve” value (P12-Ichikawa; [1])?
A: 449

Q: And the “AUC of viability dose-response curve” value (SEM cells; HPLM + 10% dialyzed FBS)?
A: 413

Q: What about the “AUC of viability dose-response curve” value (SEM cells; RPMI 5 mM glucose + 10% FBS) of the same molecule?
A: 423

Q: And the “AUC of viability dose-response curve” value (SEM cells; [1])?
A: 408

Q: For `COC1=CC=C(C=C1O)C/2=C/C(=O)C3=C(O2)C=C(O)C=C3O`, which “AUC of viability dose-response curve” value (NOMO1; HPLM + 10% dialyzed FBS) is on record?
A: 466

Q: What about the “AUC of viability dose-response curve” value (NOMO1; RPMI 5 mM glucose + 10% FBS) of the same molecule?
A: 428

Q: And the “AUC of viability dose-response curve” value (NOMO1; [1])?
A: 437

Q: What about the “AUC of viability dose-response curve” value (P12-Ichikawa; HPLM + 10% dialyzed FBS) of the same molecule?
A: 440

Q: And the “AUC of viability dose-response curve” value (P12-Ichikawa; RPMI 5 mM glucose + 10% FBS)?
A: 446

Q: What about the “AUC of viability dose-response curve” value (P12-Ichikawa; [1]) of the same molecule?
A: 381

Q: What about the “AUC of viability dose-response curve” value (SEM cells; HPLM + 10% dialyzed FBS) of the same molecule?
A: 419

Q: What about the “AUC of viability dose-response curve” value (SEM cells; RPMI 5 mM glucose + 10% FBS) of the same molecule?
A: 456

Q: And the “AUC of viability dose-response curve” value (SEM cells; [1])?
A: 456

Q: Which results are given for `O=C(O)CCn1c2c(c3ccccc31)C[C@H](N[S+](=O)([O-])c1ccc(F)cc1)CC2`?
A: AUC of viability dose-response curve (NOMO1; HPLM + 10% dialyzed FBS): 458; AUC of viability dose-response curve (NOMO1; RPMI 5 mM glucose + 10% FBS): 457; AUC of viability dose-response curve (NOMO1; [1]): 448; AUC of viability dose-response curve (P12-Ichikawa; HPLM + 10% dialyzed FBS): 465; AUC of viability dose-response curve (P12-Ichikawa; RPMI 5 mM glucose + 10% FBS): 468; AUC of viability dose-response curve (P12-Ichikawa; [1]): 453; AUC of viability dose-response curve (SEM cells; HPLM + 10% dialyzed FBS): 471; AUC of viability dose-response curve (SEM cells; RPMI 5 mM glucose + 10% FBS): 449; AUC of viability dose-response curve (SEM cells; [1]): 472

Q: Which results are given for `Cc1[nH]c(/C=C2\C(=O)Nc3ccccc32)c(C)c1CCC(=O)O`?
A: AUC of viability dose-response curve (NOMO1; HPLM + 10% dialyzed FBS): 433; AUC of viability dose-response curve (NOMO1; RPMI 5 mM glucose + 10% FBS): 434; AUC of viability dose-response curve (NOMO1; [1]): 457; AUC of viability dose-response curve (P12-Ichikawa; HPLM + 10% dialyzed FBS): 406; AUC of viability dose-response curve (P12-Ichikawa; RPMI 5 mM glucose + 10% FBS): 408; AUC of viability dose-response curve (P12-Ichikawa; [1]): 419; AUC of viability dose-response curve (SEM cells; HPLM + 10% dialyzed FBS): 245; AUC of viability dose-response curve (SEM cells; RPMI 5 mM glucose + 10% FBS): 288; AUC of viability dose-response curve (SEM cells; [1]): 236
